Experimental data reported in PubChem BioAssay (NCI).
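Cells were grown in 96-well plates and exposed to each compound for 48 hours at five concentrations; endpoints were interpolated linearly between bracketing concentrations, or set to the highest concentration if not reached. TGI: total growth inhibition.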

What was measured:
Assay in all cases: growth of human tumour cells (NCI), 48 h
[1] = system: SK-MEL-2 melanoma
[2] = system: PC-3 prostate
[3] = system: ACHN renal
[4] = system: M14 melanoma
[5] = system: A549 NSCLC
[6] = system: XF 498 CNS
[7] = system: LXFL 529 NSCLC
[8] = system: HT29 colon
[9] = system: RPMI-8226 leukemia
[10] = system: SNB-75 CNS
[11] = system: HCT-15 colon
[12] = system: KM20L2 colon
[13] = system: KM12 colon
[14] = system: COLO 205 colon
[15] = system: LOX IMVI melanoma
[16] = system: CCRF-CEM leukemia
[17] = system: NCI-H23 lung
[18] = system: SN12C renal
[19] = system: NCI/ADR-RES ovarian
[20] = system: TK-10 renal
[21] = system: HOP-18 NSCLC
[22] = system: MOLT-4 leukemia
[23] = system: RXF 393 renal
[24] = system: EKVX NSCLC
[25] = system: OVCAR-3 ovarian
[26] = system: SK-OV-3 ovarian
[27] = system: HOP-92 NSCLC
[28] = system: SF-539 CNS
[29] = system: OVCAR-4 ovarian
[30] = system: SR leukemia
[31] = system: BT-549 breast
[32] = system: NCI-H460 lung
[33] = system: NCI-H226 lung
[34] = system: U251 CNS
[35] = system: NCI-H522 lung
[36] = system: SK-MEL-5 melanoma
[37] = system: UACC-62 melanoma
[38] = system: SF-295 CNS
[39] = system: M19-MEL melanoma
[40] = system: MDA-N
[41] = system: IGROV1 ovarian
[42] = system: MALME-3M melanoma
[43] = system: SNB-78 CNS
[44] = system: DLD-1 colon
[45] = system: RXF-631 renal
[46] = system: A498 renal
[47] = system: SF-268 CNS
[48] = system: OVCAR-5 ovarian
[49] = system: HS 578T breast
[50] = system: DMS 273 small cell lung
[51] = system: 786-0 renal
[52] = system: HCC-2998 colon
[53] = system: MDA-MB-435
[54] = system: MDA-MB-231 breast
[55] = system: UO-31 renal
[56] = system: DMS 114 small cell lung
[57] = system: K-562 leukemia
[58] = system: HL-60(TB) leukemia
[59] = system: HCT-116 colon
[60] = system: SK-MEL-28 melanoma
[61] = system: DU-145 prostate
[62] = system: UACC-257 melanoma
[63] = system: SNB-19 CNS
[64] = system: T-47D breast
[65] = system: SW-620 colon
[66] = system: OVCAR-8 ovarian
[67] = system: CAKI-1 renal
[68] = system: HOP-62 NSCLC

Compound: CCCCNCC(=O)O[C@]1(CC)C(=O)OCc2c1cc1n(c2=O)Cc2cc3ccccc3nc2-1
- TGI [1]: 8.76 µM
- TGI [2]: > 100 µM
- TGI [3]: 3.77 µM
- TGI [4]: 7.23 µM
- TGI [5]: 26.7 µM
- TGI [6]: 2.92 µM
- TGI [7]: 56.8 µM
- TGI [8]: > 100 µM
- TGI [9]: 5.77 µM
- TGI [10]: 3.44 µM
- TGI [11]: > 100 µM
- TGI [12]: > 100 µM
- TGI [13]: 6.55 µM
- TGI [14]: 17.5 µM
- TGI [15]: 1.43 µM
- TGI [16]: 0.723 µM
- TGI [17]: 0.877 µM
- TGI [18]: > 16.2 µM
- TGI [19]: 2.03 µM
- TGI [20]: > 96.5 µM
- TGI [21]: 48.9 µM
- TGI [22]: 0.232 µM
- TGI [23]: 2.15 µM
- TGI [24]: > 100 µM
- TGI [25]: 12.8 µM
- TGI [26]: > 40.5 µM
- TGI [27]: 12.3 µM
- TGI [28]: 0.849 µM
- TGI [29]: 20.4 µM
- TGI [30]: 0.0355 µM
- TGI [31]: 8.36 µM
- TGI [32]: 1.68 µM
- TGI [33]: 2.06 µM
- TGI [34]: 4.49 µM
- TGI [35]: 4.82 µM
- TGI [36]: 1.27 µM
- TGI [37]: 0.925 µM
- TGI [38]: 11.7 µM
- TGI [39]: 6.21 µM
- TGI [40]: 23.1 µM
- TGI [41]: > 39.3 µM
- TGI [42]: 30.5 µM
- TGI [43]: > 100 µM
- TGI [44]: > 100 µM
- TGI [45]: 6.9 µM
- TGI [46]: 4.64 µM
- TGI [47]: > 95.6 µM
- TGI [48]: 5.95 µM
- TGI [49]: > 100 µM
- TGI [50]: 0.236 µM
- TGI [51]: 0.946 µM
- TGI [52]: 8.76 µM
- TGI [53]: 11.3 µM
- TGI [54]: > 100 µM
- TGI [55]: 1.71 µM
- TGI [56]: 4.69 µM
- TGI [57]: > 48.7 µM
- TGI [58]: 0.314 µM
- TGI [59]: 4.8 µM
- TGI [60]: > 93.8 µM
- TGI [61]: 1.32 µM
- TGI [62]: 8.19 µM
- TGI [63]: > 61.1 µM
- TGI [64]: 2.44 µM

Compound: COc1ccc(OC)c(NC(=O)CCC/C(CC(=O)c2ccc(O)c(OC)c2)=N\NC(=O)C[N+](C)(C)C)c1
- TGI [1]: > 100 µM
- TGI [3]: > 100 µM
- TGI [4]: > 100 µM
- TGI [5]: > 100 µM
- TGI [6]: > 100 µM
- TGI [7]: > 100 µM
- TGI [8]: > 100 µM
- TGI [9]: > 100 µM
- TGI [10]: > 100 µM
- TGI [11]: > 100 µM
- TGI [12]: > 100 µM
- TGI [13]: > 100 µM
- TGI [14]: > 100 µM
- TGI [65]: > 100 µM
- TGI [15]: > 100 µM
- TGI [16]: > 100 µM
- TGI [17]: > 100 µM
- TGI [18]: > 100 µM
- TGI [20]: > 100 µM
- TGI [21]: > 100 µM
- TGI [22]: > 100 µM
- TGI [24]: > 100 µM
- TGI [25]: > 100 µM
- TGI [26]: > 100 µM
- TGI [27]: > 100 µM
- TGI [28]: > 100 µM
- TGI [29]: > 100 µM
- TGI [30]: > 100 µM
- TGI [66]: > 100 µM
- TGI [32]: > 100 µM
- TGI [33]: > 100 µM
- TGI [34]: > 100 µM
- TGI [35]: > 100 µM
- TGI [67]: > 100 µM
- TGI [36]: > 100 µM
- TGI [37]: > 100 µM
- TGI [38]: > 100 µM
- TGI [39]: > 100 µM
- TGI [41]: > 100 µM
- TGI [42]: > 100 µM
- TGI [44]: > 100 µM
- TGI [45]: > 100 µM
- TGI [68]: > 100 µM
- TGI [46]: > 100 µM
- TGI [47]: > 100 µM
- TGI [48]: > 100 µM
- TGI [50]: > 100 µM
- TGI [51]: > 100 µM
- TGI [52]: > 100 µM
- TGI [55]: > 100 µM
- TGI [56]: > 100 µM
- TGI [57]: > 100 µM
- TGI [58]: > 100 µM
- TGI [60]: > 100 µM
- TGI [62]: > 100 µM
- TGI [63]: > 100 µM

Compound: CCOC(=O)c1nc2ccc([N+](=O)[O-])cc2c2c1CCO2
- TGI [1]: > 100 µM
- TGI [3]: > 100 µM
- TGI [4]: > 100 µM
- TGI [5]: > 100 µM
- TGI [6]: > 100 µM
- TGI [7]: > 100 µM
- TGI [8]: > 100 µM
- TGI [10]: > 100 µM
- TGI [11]: > 100 µM
- TGI [12]: > 100 µM
- TGI [13]: > 100 µM
- TGI [14]: > 100 µM
- TGI [65]: > 100 µM
- TGI [15]: > 100 µM
- TGI [16]: > 100 µM
- TGI [17]: > 100 µM
- TGI [18]: > 100 µM
- TGI [20]: > 100 µM
- TGI [21]: > 100 µM
- TGI [22]: > 100 µM
- TGI [23]: > 100 µM
- TGI [24]: > 100 µM
- TGI [25]: > 100 µM
- TGI [26]: > 100 µM
- TGI [28]: > 100 µM
- TGI [29]: > 100 µM
- TGI [66]: > 100 µM
- TGI [32]: > 100 µM
- TGI [33]: > 100 µM
- TGI [34]: > 100 µM
- TGI [35]: > 100 µM
- TGI [67]: > 100 µM
- TGI [36]: > 100 µM
- TGI [37]: > 100 µM
- TGI [38]: > 100 µM
- TGI [39]: > 100 µM
- TGI [41]: > 100 µM
- TGI [42]: > 100 µM
- TGI [43]: > 100 µM
- TGI [44]: > 100 µM
- TGI [45]: > 100 µM
- TGI [68]: > 100 µM
- TGI [46]: > 100 µM
- TGI [47]: > 100 µM
- TGI [48]: > 100 µM
- TGI [50]: > 100 µM
- TGI [51]: > 100 µM
- TGI [52]: > 100 µM
- TGI [56]: > 100 µM
- TGI [57]: > 100 µM
- TGI [58]: > 100 µM
- TGI [59]: > 100 µM
- TGI [60]: > 100 µM
- TGI [62]: > 100 µM
- TGI [63]: > 100 µM
